Legend:
[1] = target: recombinant human SGK-1 enzyme (Homo sapiens, UniProt O00141); experiment: SGK-1 enzymatic activity assay (substrate phosphorylation, fluorescein-labeled peptide, lab-chip); format: biochemical; details: ATP 10 μM, peptide substrate 1 μM, 60 min at 37° C., read-out: IC50 for inhibition of SGK-1 enzymatic activity
Source text: The synthesized fluorescent labeled peptide substrate contained (5(6)-Carboxyfluorescein)-RPRAATF-NH2. The phosphorylated substrate peptide and non-phosphorylated substrate peptide were separated with caliper life science's lab-chip technology based on a micro fluidics method. All fluid flow was established on the chip by applying a vacuum of a few psi to the waste well transporting fluid from various sources through interconnecting channels. Because the phosphoryl group is doubly negatively charged, under the pressure-driven hydrodynamic flow and the voltage-driven flow within the electric field, the fluorescent labeled peptide substrate and its phosphorylation product appear at different times in the detection window to the detection point. Substrate turnover can thus be determined as the ratio of the product peak area and the sum of substrate peak area and product peak area.
The enzyme reaction was carried out in a buffer containing 25 mM Tris-HCl (pH 7.4), 5 mM MgCl2, 2 mM MnCl2, 2 mM DTT, and 0.03% bovine serum albumine. The enzyme was pre-incubated with the test compound for 30 min at 24° C. The kinase reaction was initiated by addition of the substrate mixture containing the peptide substrate (final concentration 1 μM) and ATP (final concentration 10 μM). After 60 min incubation at 37° C., the enzyme reaction was terminated by adding a buffer containing 100 mM Hepes (pH 7.4) and 35 mM EDTA.
For the determination of the compound dose response, a 10 mM DMSO stock solution was diluted and tested in a ten-point, three-fold dilution series run in duplicate beginning at 30 μM final concentration. Data were analyzed using a four-parameter curve fit with a fixed minimum and maximum experimentally defined as the average positive and negative controls on each plate.

[2] = tested on: collagen type X (Col10a1) expression in ATDC5 cells; experiment: Chondrocyte hypertrophic differentiation in mouse chondrogenic ATDC5 cells (collagen type X expression); format: cell-based; details: 336 h, 14 days differentiation with BMP2 and T3, Col10a1 by quantitative real-time PCR, read-out: IC50 for the inhibition of collagen type X expression
Source text: The ATDC5 cell assay was used as in vitro model to determine the effects of the compounds of the invention on chondrocyte hypertrophic differentiation by monitoring the expression levels of collagen type X (Col10a1) as specific marker of chondrocyte hypertrophy.
Background: ATDC5 cells are a clonal mouse embryonic cell line derived from multipotent AT805 teratocarcinoma cells (Atsumi T, Miwa Y, Kimata K, Ikawa Y.; A chondrogenic cell line derived from a differentiating culture of AT805 teratocarcinoma cells. Cell Differ. Dev. 30 (1990), 109-116). […] Chondrogenic differentiation can be shown by measuring the expression of the cartilage main collagen (Col2a1) and aggrecan (AGC1) and glycosaminoglycan-staining with Alcian Blue within two weeks after insulin-triggered differentiation, and hypertrophic differentiation can be monitored by the expression of collagen type X (Col10a1), a specific marker of chondrocyte hypertrophy within 21 days of in vitro culture. […] SGK-inhibitors were added to differentiating ATDC5 cells for 14 days and Col10a1 gene expression was quantified to determine effects on chondrocyte hypertrophic differentiation. […]
After two weeks of cell culture, RNA was isolated and converted to cDNA for determination of gene expression by quantitative real-time PCR. […] RNA was isolated in 30 μl of pure water and the RNA content measured by UV-spectroscopy (Nanodrop, Peqlab). […]

[3] = tested on: SGK-1 dependent activation of ENaC-currents in A6 cell monolayers; experiment: Functional electrophysiological assay, SGK-1 dependent activation of ENaC currents in A6 cell monolayers (Ussing chamber); format: cell-based; details: Xenopus laevis, 0.75 h, hypoosmotic shock 45 min, read-out: IC50 for inhibition of ΔI'sc (amiloride-sensitive ENaC-dependent short circuit current)
Procedure: Materials and methods for Ussing chamber measurement of A6 cells: The renal Xenopus laevis cell line A6 (Rafferty, K. A.; Mass culture of amphibia cells: methods and observations concerning stability of cell type. In: Biology of Amphibian Tumors, edited by M. Mizell. New York: Springer-Verlag, 1969, p. 52-81) was used for the experiments. Cells were grown in cell culture flasks (Nunc) at 28° C. in a humidified atmosphere with 4% CO2. The culture medium contained a 7:3 mixture of Leibovitz's L-15 (Sigma-Aldrich)/Coon's (Sigma-Aldrich) media supplemented with 10% fetal bovine serum (PAA), 20% sterile water, 25 mM NaHCO3 (Sigma-Aldrich), 100 U/ml penicillin (PAA) and 100 μg/ml streptomycin (PAA). The osmolality of the medium was 270 mOsml/kg H2O). […] Filters with confluent A6 cells were transferred into a continuously perfused Ussing-chamber, and electrophysiological parameters were measured under open circuit conditions using a transepithelial clamp amplifier (EP Design). Short circuit current (I′sc) was calculated by Ohm's law. […]
To evaluate the effects of SGK inhibitors on ENaC-mediated transepithelial currents, […] monolayers were first equilibrated for 5 min with isoosmotic Ringer-solution from both the luminal and basolateral side of the cell layer. […] ENaC-dependent I′sc after the hypoosmotic shock (I′schypo) was determined by application of amiloride at the end of the experiment. […]

recombinant human SGK-1 enzyme, sequence (O00141 whole entry, looked up): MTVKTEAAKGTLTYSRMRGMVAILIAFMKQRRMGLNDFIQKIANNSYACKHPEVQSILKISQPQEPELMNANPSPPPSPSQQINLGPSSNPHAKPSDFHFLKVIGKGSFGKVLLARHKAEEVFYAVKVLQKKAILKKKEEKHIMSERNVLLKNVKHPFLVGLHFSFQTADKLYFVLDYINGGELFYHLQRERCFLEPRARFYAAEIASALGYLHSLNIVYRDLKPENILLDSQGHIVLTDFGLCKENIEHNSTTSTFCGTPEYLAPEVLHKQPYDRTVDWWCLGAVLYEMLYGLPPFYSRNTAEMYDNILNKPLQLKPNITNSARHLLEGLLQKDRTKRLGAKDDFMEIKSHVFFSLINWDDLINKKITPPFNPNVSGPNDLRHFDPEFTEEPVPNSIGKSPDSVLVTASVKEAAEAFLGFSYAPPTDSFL

| IC50 [1] | SMILES | also measured |
| --- | --- | --- |
| 31 nM | Nc1n[nH]c2nc(-c3ccc(NS(=O)(=O)c4cc(F)cc(F)c4Cl)cc3)cnc12 [Example 60, N-[4-(3-Amino-1H-pyrazolo[3,4-b]pyrazin-6-yl)-phenyl]-2-chloro-3,5-difluoro-benzenesulfonamide] |  |
| 18 nM | Nc1n[nH]c2nc(-c3ccc(NS(=O)(=O)c4ccc(F)cc4Cl)cc3)cnc12 [Example 61, N-[4-(3-Amino-1H-pyrazolo[3,4-b]pyrazin-6-yl)-phenyl]-2-chloro-4-fluoro-benzenesulfonamide] |  |
|  | Nc1n[nH]c2nc(-c3ccc(NS(=O)(=O)c4cc(Cl)ccc4F)c(F)c3)cnc12 [Example 6, N-[4-(3-Amino-1H-pyrazolo[3,4-b]pyrazin-6-yl)-2-fluoro-phenyl]-5-chloro-2-fluoro-benzenesulfonamide] | IC50 [2]: 559 nM |
| 47 nM | N#Cc1ccc(F)c(S(=O)(=O)Nc2ccc(-c3cnc4c(N)n[nH]c4n3)cc2)c1 [Example 45, N-[4-(3-Amino-1H-pyrazolo[3,4-b]pyrazin-6-yl)-phenyl]-5-cyano-2-fluoro-benzenesulfonamide] |  |
| 413 nM | O=S(=O)(Nc1ccc(-c2cnc3c(NS(=O)(=O)c4cc(Cl)c(F)cc4F)n[nH]c3n2)cc1)c1cc(Cl)c(F)cc1F [Example 42, 5-Chloro-N-[4-[3-[(5-chloro-2,4-difluoro-phenyl)sulfonylamino]-1H-pyrazolo[3,4-b]pyrazin-6-yl]phenyl]-2,4-difluoro-benzenesulfonamide] |  |
| 1050 nM | Cc1nn(C)c(Cl)c1S(=O)(=O)Nc1ccc(-c2cnc3c(NS(=O)(=O)c4c(C)nn(C)c4Cl)n[nH]c3n2)cc1 [Example 43, 5-Chloro-N-[4-[3-[(5-chloro-1,3-dimethyl-pyrazol-4-yl)sulfonylamino]-1H-pyrazolo[3,4-b]pyrazin-6-yl]phenyl]-1,3-dimethyl-pyrazole-4-sulfonamide] |  |
|  | Nc1n[nH]c2nc(-c3ccc(NS(=O)(=O)c4cccc(Cl)c4Cl)cc3)cnc12 [Example 1, N-[4-(3-Amino-1H-pyrazolo[3,4-b]pyrazin-6-yl)phenyl]-2,3-dichloro-benzenesulfonamide] | IC50 [3]: 2100 nM |

Source: patent US9174993B2, “N-[4-(1H-pyrazolo[3,4-b]pyrazin-6-yl)-phenyl]-sulfonamides and their use as pharmaceuticals” (SANOFI, priority 2011, dated 2015)
